Measurements from article PMC2363132, “Phase I and pharmacokinetic study of DACA (XR5000): a novel inhibitor of topoisomerase I and II” (British Journal of Cancer, 1999).
Where two headings read alike, the source gives them in different places.

Experiments:
[1] = test system: multi-drug resistant subline of the P388 leukaemia expressing the P-glycoprotein; parameters: method as in Baguley et al, 1990; conditions: ref Baguley et al, 1990; cited from earlier work
Colon 38 = test system: Colon 38; parameters: method as in Baguley et al, 1995; conditions: Colon 38 tumour; ref Baguley et al, 1995; cited from earlier work
mice = conditions: murine data, cited from earlier work
L1210 leukaemia = conditions: cited from earlier work
clinical = conditions: human, in vivo; for Cmax: 800 mg
[2] = parameters: method as in Evans et al, 1992; Paxton et al, 1992, 1993a, 1993b; conditions: preclinical pharmacology studies; ref Evans et al, 1992; Paxton et al, 1992, 1993a, 1993b; cited from earlier work
metastatic solid tumour = experiment: Anti-tumour activity in patients, WHO criteria; format: in vivo, human; conditions: 41 patients, 9-800 mg m-2
murine 16/C tumour = test system: murine 16/C tumour; parameters: method as in Baguley et al, 1995; conditions: ref Baguley et al, 1995; cited from earlier work
[3] = parameters: method as in Evans et al, 1992; Paxton et al, 1992, 1993a, 1993b; conditions: preclinical; ref Evans et al, 1992; Paxton et al, 1992, 1993a, 1993b; cited from earlier work
[4] = human, in vivo
[5] = test system: patients with solid tumours
Lewis lung carcinoma = test system: Lewis lung carcinoma; parameters: method as in Atwell et al, 1987; Finlay and Baguley, 1989; conditions: Lewis lung carcinoma in mice; ref Atwell et al, 1987; Finlay and Baguley, 1989; cited from earlier work
P388 leukaemia = conditions: cited from earlier work
[6] = test system: sublines of the Jurkat human leukaemia cell line, which have reduced amounts of topoisomerase II; parameters: method as in Finlay et al, 1993; conditions: ref Finlay et al, 1993; cited from earlier work
Colon 11 A = test system: Colon 11 A; parameters: method as in Baguley et al, 1995; conditions: Colon 11 A tumour; ref Baguley et al, 1995; cited from earlier work
cancer patients = test system: cancer patients; parameters: method as in Abigerges et al, 1996; conditions: phase I trial; ref Abigerges et al, 1996; cited from earlier work

## CN(C)CCNC(=O)c1cccc2cc3ccccc3nc12.Cl.Cl [DACA, N-[2-(dimethylamino)ethyl] acridine-4-carboxamide dihydrochloride]
[1]
  activity against multi-drug resistant P388 subline expressing P-glycoprotein: maintains activity
Colon 38
  activity in vivo: highly active
mice; five consecutive daily i.v. doses
  LD10: approximately 30 mg kg-1 per day
mice; single i.v. dose
  LD10: 58 mg/kg
L1210 leukaemia
  activity in vivo: only moderate activity
clinical; female, Cmax
  Cmax: 3150 ng/mL
clinical; Cmax (range)
  Cmax: 2310 to 12100 ng/mL
clinical; T1/2
  half-life: 2.22 h
clinical; Tmax
  Tmax: 2.91 h
clinical; Vss
  Vd: 143 L
clinical; plasma clearance
  clearance: 1400 mL/min
[2]
  tissue levels in brain, liver, kidney and heart relative to plasma: substantially higher
Metastatic solid tumour
  objective responses according to WHO criteria: no objective responses
Murine 16/C tumour
  activity in vivo: highly active
[3]
  unbound fraction in mouse plasma: 15.8%
[4]
  T1/2: 2.08 h
  Vss: 145.21
  highest AUC on day 3 of all patients: 54.2
  plasma clearance: 81.11
  relationship between dose and AUC: linear relationship
[5]; 3 h i.v. infusion on 3 successive days, repeated every 3 weeks
  maximum tolerated dose (MTD): 800 mg m-2 d-1
[5]; 3 h i.v. infusion on 3 successive days, 800 mg m-2
  dose-limiting toxicity (DLT): pain during the infusion
[5]; all dose levels
  clinically significant myelosuppression: rare
Lewis lung carcinoma
  activity in vivo: highly active
P388 leukaemia
  activity in vivo: only moderate activity
[6]
  sensitivity of Jurkat sublines with reduced topoisomerase II: retain sensitivity
Colon 11 A
  activity in vivo: highly active

## COc1cccc2c1C(=O)c1c(O)c3c(c(O)c1C2=O)C[C@@](O)(C(=O)CO)C[C@@H]3O[C@H]1C[C@H](N)[C@H](O)[C@H](C)O1 [doxorubicin]
[6]
  sensitivity of Jurkat sublines with reduced topoisomerase II: highly resistant

## COc1cc([C@@H]2c3cc4c(cc3[C@@H](O[C@@H]3O[C@@H]5CO[C@@H](C)O[C@H]5[C@H](O)[C@H]3O)[C@H]3COC(=O)[C@H]23)OCO4)cc(OC)c1O [etoposide]
[6]
  sensitivity of Jurkat sublines with reduced topoisomerase II: highly resistant

## Cc1cnc(NCCCN(C)C)c2c1[nH]c1ccc3cc(O)ccc3c12 [intoplicine]
Cancer patients
  dose-limiting toxicity: hepatotoxicity
